Experimental data published in PMC12285096, “Tirzepatide mitigates Stroke-Induced Blood-Brain barrier disruption by modulating Claudin-1 and C/EBP-α pathways” (Molecular Medicine, 2025).

Assays:
Claudin-1 [1] = assay: Claudin-1 expression in mouse cortex (RT-PCR, immunostaining); type: in vivo; conditions: for Claudin-1 levels (mRNA): C/EBP-α experiment, Fig. 5C; for Claudin-1 expressions in cortex tissue (mRNA, protein by immunostaining): Fig. 3A, B
Method: Mouse brain cortex samples were traditionally fixed in a 10% formaldehyde solution, embedded in paraffin, sectioned, and then dehydrated. Endogenous peroxidase activity was quenched by incubating the sections with a 3% hydrogen peroxide solution for 30 min. Antigen retrieval was carried out using ethylenediaminetetraacetic acid (EDTA) under pressure. After sealing for 30 min, slides were incubated overnight at 4 °C with primary antibodies specific for Claudin-1 (Abcam, USA), diluted at a ratio of 1:400. This incubation period was extended to ensure thorough binding. Subsequently, the slides were washed and incubated with secondary antibodies (1:400, Abcam, USA) for 15 min. Finally, the slides were developed using a DAB chromogenic substrate system, counterstained with hematoxylin, differentiated with an ethanol solution containing hydrochloric acid, subjected to a bluing step with running tap water, rinsed with deionized water, dehydrated, and covered with a protective cover slip. Visual documentation was obtained using a microscope (Zeiss, Germany). 1 mL of RNAiso Plus solution was added to the pulverized rodent cerebral cortex samples or cellular material. Following complete homogenization, the liquid fraction was extracted after high-speed centrifugation. The overall RNA pellet was then washed with 75% ethanol, and the RNA was subsequently harvested for reverse transcription. These specific procedures were carried out in accordance with the instructions provided in the PrimeScript RT reagent Kit (TaKaRa, Japan). Real-time PCR detection was performed following the experimental protocols of the Applied Biosystems 7300 instrument. Gene expression levels were determined based on cycle threshold counts.

HBMVECs = assay: TEER of OGD/R-challenged HBMVECs; type: cell-based, human
Method: HBMVECs were sourced from ATCC (USA). These cells were cultivated in a medium specifically designed for endothelial cultures, enriched with 10% FBS, and maintained in an incubator set at a temperature of 37 °C with 5% CO2. For OGD/R modeling, the culture medium was replaced with a serum-free, glucose-free medium, and then it was placed in a hypoxic environment (1% O2, 5% CO2, 94% N2) at a 37 °C incubator for 10 h. After 10 h, the normal medium containing serum was added, and the normal oxygen supply was restored. The cells were then kept in a 37 °C constant temperature incubator for 24 h of reoxygenation. To silence C/EBP-α, HBMVECs were transduced with adenovirus harboring a short hairpin RNA (shRNA) specifically designed to knock down C/EBP-α (Ad-viral sh-C/EBP-α) for 48 h. Approximately 100,000 cells were nurtured in the upper section of the Transwell device. Once the cells had bonded to the container surfaces, TEER values across each group were determined utilizing an impedance meter (Millipore, United States) after 24 h.

Claudin-1 [2] = assay: Claudin-1 expression in OGD/R-stimulated HBMVECs (real-time PCR, western blot); type: cell-based, human; conditions: for Claudin-1 expressions (mRNA): sh-C/EBP-α experiment, Fig. 9D
Method: 1 mL of RNAiso Plus solution was added to the pulverized rodent cerebral cortex samples or cellular material. Following complete homogenization, the liquid fraction was extracted after high-speed centrifugation. The overall RNA pellet was then washed with 75% ethanol, and the RNA was subsequently harvested for reverse transcription. These specific procedures were carried out in accordance with the instructions provided in the PrimeScript RT reagent Kit (TaKaRa, Japan). Real-time PCR detection was performed following the experimental protocols of the Applied Biosystems 7300 instrument. Gene expression levels were determined based on cycle threshold counts. Claudin-1 and C/EBP-α were analyzed in brain homogenates (right hemisphere: Sham, MCAO, MCAO + TZP) and HBMVECs (Control, […] lysis solution, composed of 1% protease inhibitor in RIPA buffer (Sigma-Aldrich, R0278), was introduced to samples, which were homogenized over ice for 30 min. The homogenate was centrifuged at 13,500 rpm for 10 min at 4 °C. Protein was quantified using the BCA assay kit (Sigma-Aldrich, BCA1), and 50 μg protein/lane was separated on 10% SDS-PAGE and transferred to PVDF in electrophoresis buffer at 200 mA for 2 h. The membrane was blocked with 5% skim milk in TBST for 1 h. Primary antibodies were incubated overnight at 4 °C: Claudin-1 (1:1000, Abcam, ab15098), C/EBP-α (1:1000, Santa Cruz Biotechnology, sc-166258), and GAPDH (1:2000, Sigma-Aldrich, A5441). HRP-conjugated secondary antibodies (1:5000, Santa Cruz, sc-2357) were incubated for 1 h. Bands were detected via ECL (Bio-Rad, 1705061), quantified with ImageJ, and normalized to GAPDH. HBMVECs were sourced from ATCC (USA). These cells were cultivated in a medium specifically designed for endothelial cultures, enriched with 10% FBS, and maintained in an incubator set at a temperature of 37 °C with 5% CO2. For OGD/R modeling, the culture medium was replaced with a serum-free, glucose-free medium, and then it was placed in a hypoxic environment (1% O2, 5% CO2, 94% N2) at a 37 °C incubator for 10 h. […]

MCAO mice = assay: Behavioral toxicity observation in the MCAO model; conditions: TZP 10 nmol/kg i.p. weekly

## CC[C@H](C)[C@H](NC(=O)[C@H](CC(C)C)NC(=O)[C@H](Cc1c[nH]c2ccccc12)NC(=O)[C@H](CCC(N)=O)NC(=O)[C@@H](NC(=O)[C@H](Cc1ccccc1)NC(=O)[C@H](C)NC(=O)[C@H](CCCCNC(=O)COCCOCCNC(=O)COCCOCCNC(=O)CC[C@H](NC(=O)CCCCCCCCCCCCCCCCCCC(=O)O)C(=O)O)NC(=O)[C@H](CCC(N)=O)NC(=O)[C@H](C)NC(=O)[C@@H](NC(=O)[C@H](CCCCN)NC(=O)[C@H](CC(=O)O)NC(=O)[C@H](CC(C)C)NC(=O)C(C)(C)NC(=O)[C@@H](NC(=O)[C@H](CO)NC(=O)[C@H](Cc1ccc(O)cc1)NC(=O)[C@H](CC(=O)O)NC(=O)[C@H](CO)NC(=O)[C@@H](NC(=O)[C@H](Cc1ccccc1)NC(=O)[C@@H](NC(=O)CNC(=O)[C@H](CCC(=O)O)NC(=O)C(C)(C)NC(=O)[C@@H](N)Cc1ccc(O)cc1)[C@@H](C)O)[C@@H](C)O)[C@@H](C)CC)[C@@H](C)CC)C(C)C)C(=O)N[C@@H](C)C(=O)NCC(=O)NCC(=O)N1CCC[C@H]1C(=O)N[C@@H](CO)C(=O)N[C@@H](CO)C(=O)NCC(=O)N[C@@H](C)C(=O)N1CCC[C@H]1C(=O)N1CCC[C@H]1C(=O)N1CCC[C@H]1C(=O)N[C@@H](CO)C(N)=O [TZP, Tirzepatide]
Claudin-1 [1]; MCAO + C/EBP-α-/- + TZP vs. MCAO + TZP
  Claudin-1 levels (mRNA): strikingly repressed
Claudin-1 [1]; MCAO + TZP WT mice vs. MCAO
  Claudin-1 levels (mRNA): sharply enhanced
Claudin-1 [1]; MCAO + TZP vs. MCAO (markedly diminished), 10 nmol/kg i.p. weekly, 8 weeks
  Claudin-1 expressions in cortex tissue (mRNA, protein by immunostaining): strikingly enhanced
Claudin-1 [1]; TZP group (sham-operated, 10 nmol/kg i.p. weekly, 8 weeks) vs. Sham
  Claudin-1 expressions in cortex tissue (mRNA, protein by immunostaining): remarkably enhanced
HBMVECs; OGD/R + 50 nM TZP, 24 h, control 191.3, OGD/R 115.3, Fig. 6B
  TEER values: 145.3 Ω.cm²
HBMVECs; OGD/R + 100 nM TZP, 24 h, control 191.3, OGD/R 115.3, Fig. 6B
  TEER values: 172.9 Ω.cm²
HBMVECs; sh-C/EBP-α experiment, OGD/R + TZP (100 nM), control 187.4, OGD/R 113.5, Fig. 9C
  TEER values: 175.6 Ω.cm²
HBMVECs; sh-C/EBP-α experiment, OGD/R + sh-C/EBP-α + TZP (100 nM), control 187.4, OGD/R 113.5, Fig. 9C
  TEER values: 138.2 Ω.cm²
Claudin-1 [2]; OGD/R + 50 and 100 nM TZP vs. OGD/R, Fig. 7A, B
  Claudin-1 expressions (mRNA, protein): notably enhanced
Claudin-1 [2]; OGD/R + TZP (100 nM) vs. OGD/R
  Claudin-1 expressions (mRNA): remarkably elevated
Claudin-1 [2]; OGD/R + sh-C/EBP-α + TZP (100 nM) vs. OGD/R + TZP
  Claudin-1 expressions (mRNA): strikingly restrained
MCAO mice
  Behavioral toxicity: no overt behavioral toxicity
